Results: ChEMBL document CHEMBL1201862, “PubChem BioAssay data set” (2004)
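Compound exposure: 48 hours, 5 concentrations, 96-well plates. GI50 is the concentration that inhibits growth by half.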 The source made the active and inactive calls. No stated cut-off is given here; in the data, active = GI50 up to about 1.1 µM and inactive = higher.

Assays:
Test in all cases: DTP human tumour cell line panel, 48 h
DU-145 = tested on: DU-145
RPMI-8226 = tested on: RPMI-8226
SK-OV-3 = tested on: SK-OV-3
NCI-H460 = tested on: NCI-H460
UACC-257 = tested on: UACC-257
MOLT-4 = tested on: MOLT-4
OVCAR-5 = tested on: OVCAR-5
HCT-116 = tested on: HCT-116
OVCAR-3 = tested on: OVCAR-3
SK-MEL-28 = tested on: SK-MEL-28
SF-539 = tested on: SF-539
OVCAR-4 = tested on: OVCAR-4
NCI-H226 = tested on: NCI-H226
SK-MEL-5 = tested on: SK-MEL-5
ACHN = tested on: ACHN
M14 = tested on: M14
RXF 393 = tested on: RXF 393
NCI-H23 = tested on: NCI-H23
Malme-3M = tested on: Malme-3M
K562 = tested on: K562
CAKI-1 = tested on: CAKI-1
HT-29 = tested on: HT-29
COLO 205 = tested on: COLO 205
SNB-19 = tested on: SNB-19
786-0 = tested on: 786-0
PC-3 = tested on: PC-3
HCT-15 = tested on: HCT-15
SF-268 = tested on: SF-268
HL-60 = tested on: HL-60
HOP-92 = tested on: HOP-92
Hs-578T = tested on: Hs-578T
NCI-H522 = tested on: NCI-H522
UACC-62 = tested on: UACC-62
IGROV-1 = tested on: IGROV-1
MDA-MB-231 = tested on: MDA-MB-231
HOP-62 = tested on: HOP-62
SR = tested on: SR
HCC 2998 = tested on: HCC 2998
SF-295 = tested on: SF-295
T47D = tested on: T47D
CCRF-CEM = tested on: CCRF-CEM
SN12C = tested on: SN12C
UO-31 = tested on: UO-31
MCF7 = tested on: MCF7
NCI/ADR-RES = tested on: NCI/ADR-RES
OVCAR-8 = tested on: OVCAR-8
SK-MEL-2 = tested on: SK-MEL-2
MDA-MB-435 = tested on: MDA-MB-435
KM12 = tested on: KM12
U-251 = tested on: U-251
SW-620 = tested on: SW-620
A549 = tested on: A549
BT-549 = tested on: BT-549
EKVX = tested on: EKVX
MDA-N = tested on: MDA-N
TK-10 = tested on: TK-10
LOX IMVI = tested on: LOX IMVI
SNB-75 = tested on: SNB-75

`O=S(=O)(O)c1ccc2c(/N=N/c3ccc(/N=N/c4ccccc4)cc3)c(O)c(S(=O)(=O)O)cc2c1` was tested, and the GI50 (DU-145) was > 100 µM (inactive), the GI50 (RPMI-8226) was > 100 µM (inactive) and the GI50 (SK-OV-3) was > 100 µM (inactive). The GI50 (NCI-H460) was > 100 µM (inactive), the GI50 (UACC-257) was > 100 µM (inactive) and the GI50 (MOLT-4) was > 100 µM (inactive). For the same compound, the GI50 (OVCAR-5) was > 100 µM (inactive), the GI50 (HCT-116) was 50.1 µM (inactive) and the GI50 (OVCAR-3) was > 100 µM (inactive). For the same compound, the GI50 (SK-MEL-28) was > 100 µM (inactive), the GI50 (SF-539) was > 100 µM (inactive) and the GI50 (OVCAR-4) was > 100 µM (inactive). The GI50 (NCI-H226) was > 100 µM (inactive), the GI50 (SK-MEL-5) was > 100 µM (inactive) and the GI50 (ACHN) was > 100 µM (inactive). The GI50 (M14) was > 100 µM (inactive), the GI50 (RXF 393) was > 100 µM (inactive) and the GI50 (NCI-H23) was > 100 µM (inactive). The GI50 (Malme-3M) was > 100 µM (inactive), the GI50 (K562) was > 100 µM (inactive) and the GI50 (CAKI-1) was > 100 µM (inactive). For the same compound, the GI50 (HT-29) was > 100 µM (inactive), the GI50 (COLO 205) was > 100 µM (inactive) and the GI50 (SNB-19) was > 100 µM (inactive). The GI50 (786-0) was > 100 µM (inactive), the GI50 (PC-3) was > 100 µM (inactive) and the GI50 (HCT-15) was greater than 100 µM. For the same compound, the GI50 (SF-268) was > 100 µM (inactive), the GI50 (HL-60) was > 100 µM (inactive) and the GI50 (HOP-92) was > 100 µM (inactive). For the same compound, the GI50 (Hs-578T) was > 100 µM (inactive), the GI50 (NCI-H522) was > 100 µM (inactive) and the GI50 (UACC-62) was > 100 µM (inactive). The GI50 (IGROV-1) was > 100 µM (inactive), the GI50 (MDA-MB-231) was > 100 µM (inactive) and the GI50 (HOP-62) was > 100 µM (inactive). The GI50 (SR) was > 100 µM (inactive), the GI50 (HCC 2998) was > 100 µM (inactive) and the GI50 (SF-295) was > 100 µM (inactive). For the same compound, the GI50 (T47D) was > 100 µM (inactive), the GI50 (CCRF-CEM) was > 100 µM (inactive) and the GI50 (SN12C) was > 100 µM (inactive). The GI50 (UO-31) was > 100 µM (inactive), the GI50 (MCF7) was > 100 µM (inactive) and the GI50 (NCI/ADR-RES) was > 100 µM (inactive). For the same compound, the GI50 (OVCAR-8) was > 100 µM (inactive), the GI50 (SK-MEL-2) was > 100 µM (inactive) and the GI50 (MDA-MB-435) was > 100 µM (inactive). The GI50 (KM12) was > 100 µM (inactive), the GI50 (U-251) was > 100 µM (inactive) and the GI50 (SW-620) was > 100 µM (inactive). The GI50 (A549) was > 100 µM (inactive), the GI50 (BT-549) was > 100 µM (inactive) and the GI50 (EKVX) was > 100 µM (inactive). The GI50 (MDA-N) was > 100 µM (inactive) and the GI50 (TK-10) was > 100 µM (inactive).
`COc1ccc(C2Oc3ccc(Cl)cc3C=C2[N+](=O)[O-])cc1` (stereo not given) was tested, and the GI50 (DU-145) was > 100 µM (inactive), the GI50 (RPMI-8226) was > 100 µM (inactive) and the GI50 (SK-OV-3) was > 100 µM (inactive). The GI50 (NCI-H460) was > 100 µM (inactive), the GI50 (UACC-257) was > 100 µM (inactive) and the GI50 (MOLT-4) was > 100 µM (inactive). For the same compound, the GI50 (OVCAR-5) was > 100 µM (inactive), the GI50 (HCT-116) was > 100 µM (inactive) and the GI50 (OVCAR-3) was > 100 µM (inactive). For the same compound, the GI50 (SK-MEL-28) was > 100 µM (inactive), the GI50 (OVCAR-4) was > 100 µM (inactive) and the GI50 (SK-MEL-5) was > 100 µM (inactive). For the same compound, the GI50 (ACHN) was > 100 µM (inactive), the GI50 (M14) was > 100 µM (inactive) and the GI50 (LOX IMVI) was > 100 µM (inactive). For the same compound, the GI50 (RXF 393) was > 100 µM (inactive), the GI50 (NCI-H23) was > 100 µM (inactive) and the GI50 (Malme-3M) was > 100 µM (inactive). The GI50 (K562) was > 100 µM (inactive), the GI50 (CAKI-1) was > 100 µM (inactive) and the GI50 (HT-29) was > 100 µM (inactive). The GI50 (COLO 205) was > 100 µM (inactive), the GI50 (SNB-19) was > 100 µM (inactive) and the GI50 (786-0) was > 100 µM (inactive). For the same compound, the GI50 (PC-3) was > 100 µM (inactive), the GI50 (HCT-15) was greater than 100 µM and the GI50 (SF-268) was > 100 µM (inactive). For the same compound, the GI50 (HL-60) was > 100 µM (inactive), the GI50 (Hs-578T) was > 100 µM (inactive) and the GI50 (NCI-H522) was > 100 µM (inactive). For the same compound, the GI50 (UACC-62) was > 100 µM (inactive), the GI50 (IGROV-1) was > 100 µM (inactive) and the GI50 (MDA-MB-231) was > 100 µM (inactive). For the same compound, the GI50 (HOP-62) was > 100 µM (inactive), the GI50 (SR) was > 100 µM (inactive) and the GI50 (SF-295) was > 100 µM (inactive). For the same compound, the GI50 (T47D) was > 100 µM (inactive), the GI50 (CCRF-CEM) was > 100 µM (inactive) and the GI50 (SN12C) was > 100 µM (inactive). The GI50 (UO-31) was > 100 µM (inactive), the GI50 (MCF7) was > 100 µM (inactive) and the GI50 (NCI/ADR-RES) was > 100 µM (inactive). For the same compound, the GI50 (OVCAR-8) was > 100 µM (inactive), the GI50 (MDA-MB-435) was > 100 µM (inactive) and the GI50 (KM12) was > 100 µM (inactive). The GI50 (U-251) was > 100 µM (inactive), the GI50 (A549) was > 100 µM (inactive) and the GI50 (BT-549) was > 100 µM (inactive). For the same compound, the GI50 (EKVX) was > 100 µM (inactive), the GI50 (MDA-N) was > 100 µM (inactive) and the GI50 (TK-10) was > 100 µM (inactive).
With `COc1cc(-c2coc3c(OC)c(OC4OC(CO)C(O)C(O)C4O)c(OC)cc3c2=O)cc(OC)c1C` (stereo not given) the GI50 (DU-145) was 8.41 µM (inactive), the GI50 (RPMI-8226) was 4.54 µM (inactive) and the GI50 (SK-OV-3) was 7.96 µM (inactive). For the same compound, the GI50 (NCI-H460) was 8.75 µM (inactive), the GI50 (UACC-257) was 14.2 µM (inactive) and the GI50 (MOLT-4) was 5.9 µM (inactive). For the same compound, the GI50 (OVCAR-5) was 14.2 µM (inactive), the GI50 (HCT-116) was 1.69 µM (inactive) and the GI50 (OVCAR-3) was 7.26 µM (inactive). The GI50 (SK-MEL-28) was 4.8 µM (inactive), the GI50 (SF-539) was 3.69 µM (inactive) and the GI50 (SNB-75) was 6.22 µM (inactive). For the same compound, the GI50 (OVCAR-4) was 13.1 µM (inactive), the GI50 (NCI-H226) was 25.7 µM (inactive) and the GI50 (SK-MEL-5) was 12.1 µM (inactive). The GI50 (ACHN) was 7.55 µM (inactive), the GI50 (M14) was 4.45 µM (inactive) and the GI50 (LOX IMVI) was 3.37 µM (inactive). The GI50 (RXF 393) was 2.56 µM (inactive), the GI50 (NCI-H23) was 3.98 µM (inactive) and the GI50 (Malme-3M) was 15.3 µM (inactive). The GI50 (K562) was 7.29 µM (inactive), the GI50 (CAKI-1) was 14.7 µM (inactive) and the GI50 (HT-29) was 7.03 µM (inactive). For the same compound, the GI50 (COLO 205) was 17.9 µM (inactive), the GI50 (SNB-19) was 6.81 µM (inactive) and the GI50 (786-0) was 1.28 µM (inactive). For the same compound, the GI50 (PC-3) was 7.01 µM (inactive), the GI50 (HCT-15) was 3.66 µM and the GI50 (SF-268) was 4.84 µM (inactive). For the same compound, the GI50 (HL-60) was 4.53 µM (inactive), the GI50 (HOP-92) was 17.7 µM (inactive) and the GI50 (Hs-578T) was 4.17 µM (inactive). For the same compound, the GI50 (NCI-H522) was 3.36 µM (inactive), the GI50 (UACC-62) was 4.42 µM (inactive) and the GI50 (IGROV-1) was 4.65 µM (inactive). For the same compound, the GI50 (MDA-MB-231) was 15.1 µM (inactive), the GI50 (HOP-62) was 15.2 µM (inactive) and the GI50 (SR) was 4.35 µM (inactive). The GI50 (HCC 2998) was 3.89 µM (inactive), the GI50 (SF-295) was 11.7 µM (inactive) and the GI50 (T47D) was 9.14 µM (inactive). For the same compound, the GI50 (CCRF-CEM) was 3.75 µM (inactive), the GI50 (SN12C) was 4.07 µM (inactive) and the GI50 (UO-31) was 4.42 µM (inactive). For the same compound, the GI50 (MCF7) was 3.66 µM (inactive), the GI50 (NCI/ADR-RES) was 7.36 µM (inactive) and the GI50 (OVCAR-8) was 3.38 µM (inactive). The GI50 (SK-MEL-2) was 16.1 µM (inactive), the GI50 (MDA-MB-435) was 3.85 µM (inactive) and the GI50 (KM12) was 4.79 µM (inactive). The GI50 (U-251) was 3.7 µM (inactive), the GI50 (SW-620) was 6.1 µM (inactive) and the GI50 (A549) was 7.13 µM (inactive). The GI50 (BT-549) was 4.04 µM (inactive), the GI50 (EKVX) was 11.8 µM (inactive) and the GI50 (MDA-N) was 2.21 µM (inactive). The GI50 (TK-10) was 18.4 µM (inactive).
